Reference: US6492367B1, “Sulfamato hydroxamic acid metalloprotease inhibitor” (G. D. Searle & Company, priority 1999, dated 2002)

Assays:
[1] = tested on: advanced, rapidly progressive, treatment-refractory solid tumor cancers (colorectal, pancreatic, ovarian, prostate); details: cited from earlier work
recombinant human MMP-1 = molecular target: T1, recombinant human MMP-1 (Homo sapiens, UniProt P03956); assay: In vitro metalloprotease inhibition, fluorogenic MCA peptide substrate; details: Inhibition Table; room temperature, pH 7.5, 4 μM substrate
T1 sequence (P03956 100-469): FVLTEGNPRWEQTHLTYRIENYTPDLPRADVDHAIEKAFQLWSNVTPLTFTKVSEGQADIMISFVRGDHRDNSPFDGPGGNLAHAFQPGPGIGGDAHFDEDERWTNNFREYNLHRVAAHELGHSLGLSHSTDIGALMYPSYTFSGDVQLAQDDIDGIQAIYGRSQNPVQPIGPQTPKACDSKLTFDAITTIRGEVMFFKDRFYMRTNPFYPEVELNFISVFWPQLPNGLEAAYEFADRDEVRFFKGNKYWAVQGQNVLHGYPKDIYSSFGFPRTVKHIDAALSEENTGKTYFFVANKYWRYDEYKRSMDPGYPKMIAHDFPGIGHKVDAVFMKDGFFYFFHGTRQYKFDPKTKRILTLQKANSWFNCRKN

recombinant human MMP-13 = recombinant human MMP-13 (Homo sapiens, UniProt P45452); assay: as above; type: biochemical; details: Inhibition Table; room temperature, pH 7.5, 4 μM substrate
Experimental: The compounds prepared in the manner described in the Examples above were assayed for activity by an in vitro assay. Following the procedures of Knight et al., FEDS Lett. 296(3):263 (1992).
More specifically, recombinant human MMP-13 and MMP-1 enzymes were prepared in laboratories of the assignee following usual laboratory procedures. MMP-13 from a full length cDNA clone was expressed as a proenzyme using a baculovirus as discussed in V.A. Luckow, insect Cell Expression Technology, pages 183-218, in Protein Engineering: Principles and Practice, J. L. Cleland et al eds., Wiley-Liss, Inc., (1996). […]
In the absence of inhibitor activity, a fluorogenic peptide was cleaved at the gly-leu peptide bond, separating the highly fluorogenic peptide from a 2,4-dinitrophenyl quencher, resulting in an increase of fluorescence intensity (excitation at 328 nm/emission at 415 nm). Inhibition was measured as a reduction in fluorescent intensity as a function of inhibitor concentration, using a Perkin Elmer L550 plate reader. The IC50 values were calculated from those values. […]

MMP-2 = molecular target: T2, MMP-2 (Homo sapiens, UniProt P08253); assay: as above; details: Inhibition Table; room temperature, pH 7.5, 4 μM substrate
T2 sequence (P08253 110-660): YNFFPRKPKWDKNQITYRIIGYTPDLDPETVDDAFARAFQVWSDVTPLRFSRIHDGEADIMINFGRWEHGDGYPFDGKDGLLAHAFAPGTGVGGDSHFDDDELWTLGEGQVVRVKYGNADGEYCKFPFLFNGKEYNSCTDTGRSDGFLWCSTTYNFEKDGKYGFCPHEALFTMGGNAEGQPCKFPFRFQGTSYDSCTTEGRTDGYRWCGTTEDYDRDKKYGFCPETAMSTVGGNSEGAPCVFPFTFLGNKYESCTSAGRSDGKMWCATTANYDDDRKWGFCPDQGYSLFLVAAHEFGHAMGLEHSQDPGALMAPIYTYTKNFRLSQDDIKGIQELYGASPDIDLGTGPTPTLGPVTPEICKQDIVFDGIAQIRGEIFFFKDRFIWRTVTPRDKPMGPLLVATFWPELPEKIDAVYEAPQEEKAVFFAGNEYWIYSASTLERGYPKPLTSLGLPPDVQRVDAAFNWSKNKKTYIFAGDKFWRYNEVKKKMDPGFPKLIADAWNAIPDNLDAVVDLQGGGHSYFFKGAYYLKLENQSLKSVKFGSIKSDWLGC
Experimental: The enzyme substrate is a methoxycoumarin-containing polypeptide having the following sequence:
MCA-ProLeuGlyLeuDpaAlaArgNH2, wherein MCA is methoxycoumarin and Dpa is 3-(2,4-dinitrophenyl)-L-2,3-diaminopropionyl alanine.
Assays were carried out at room temperature, and dimethyl sulfoxide (DMSO) at a final concentration of 1 percent was used to dissolve inhibitor compound.
The assayed inhibitor compound in DMSO/buffer solution was compared to an equal amount of DMSO/buffer with no inhibitor as control using Microfluor T White Plates (Dynatech). The inhibitor or control solution was maintained in the plate for minutes and the substrate was added to provide a final concentration of 4 μM.

Row | Compound | most common drug-related toxicity ([1]; Phase I/II clinical trials) | cancer-specific antigens used as surrogate markers for biological activity ([1]; Phase I/II studies, patients with advanced solid tumor cancers) | ED50 MMP-1 (recombinant human MMP-1) | ED50 MMP-13 (recombinant human MMP-13) | ED50 MMP-2 (MMP-2)
1 | CNC(=O)[C@@H](NC(=O)[C@H](CC(C)C)[C@H](O)C(=O)NO)C(C)(C)C [marimastat, Marimastat] | musculoskeletal pain and stiffness | dose-related reduction in the rise of cancer-specific antigens | – | – | –
2 | 4-[[4-[[(3R,5R)-rel-3,5-Dimethyl-1-piperidinyl]carbonyl]-1-piperidinyl]sulfonyl]tetrahydro-N-hydroxy-2H-pyran-4-carboxamide and 4-[[4-[[(3R,5S)-rel-3,5-dimethyl-1-piperidinyl]carbonyl]-1-piperidinyl]sulfonyl]tetrahydro-N-hydroxy-2H-pyran-4-carboxamide [Example 49] | – | – | <10,000 nM | <10,000 nM | <10,000 nM
